By EC50 is commonly meant the midpoint of the concentration-response curve. As a reminder, the CC50 is the concentration at which the toxic effect on the cells reaches its halfway point. A higher CC50 goes with better tolerance by the cells.

In data set [1] the target is T1, Recombinant rhinovirus 3C protease, serotype 14 (Human rhinovirus 14, UniProt P03303).
T1 construct: Recombinant rhinovirus 3C proteases; made in house
Put plainly: Inhibition of rhinovirus 3C protease (FRET assay, kobs/[I]), serotype 14. The data set is classed as biochemical. The note with it: pH 7.6; HRV-14; read-out: kobs/[I] (3C protease inhibition activity). The method, boiled down:
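Enzyme-start FRET assay with ~1 μM DABCYL/EDANS peptide substrate and 50-100 nM recombinant protease in 50 mM tris pH 7.6, 1 mM EDTA, 2% DMSO. Cleavage followed as fluorescence increase; kobs/[I] derived from progress curves.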

The next data set deals with HRV-14. The data set can be described thus: Antirhinoviral H1-HeLa cell culture assay (XTT cell protection, EC50), HRV-14. The data set is classed as cell-based, human rhinovirus (HRV) serotype-14 in H1-HeLa cells. The note with it: Rhinovirus B, HRV14, H1-HeLa. The procedure, abridged:
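H1-HeLa cells were infected with HRV-14 at m.o.i. 0.13, or mock-infected, and incubated with compound for two days. Cell protection was read by XTT/PMS formazan absorbance at 450/650 nm to give EC50. CC50 came from mock-infected cells, and TI = CC50/EC50.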
Background: Formazan colour is commonly taken as a measure of viable cells.

Data set [2] concerns strains of human rhinovirus (HRV). The data set can be described thus: Antirhinoviral H1-HeLa cell culture assay (XTT cell protection, EC50), other HRV strains. It is filed as cell-based, human rhinovirus in H1-HeLa cells. As to conditions: read-out: EC50. The procedure, abridged:
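H1-HeLa cells infected, or mock-infected, were incubated with compounds for two days. Cell protection measured by XTT/PMS formazan absorbance at 450/650 nm; TI taken as CC50 divided by EC50.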

The nature of data set [3]: Cytotoxicity (CC50) in mock-infected H1-HeLa cells, XTT dye reduction. The data set is classed as cell-based, human. As to conditions: human, H1-HeLa cells, mock-infected; line of HRV-14. The procedure, abridged: (§1)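 H1-HeLa cells mock-infected, read by XTT/PMS formazan at 450/650 nm.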
For the next data set, the system named is H1-HeLa cells. The data set is described as above. The data set is classed as cell-based, human. The procedure, abridged: as §1
The mark [4] stands for this setting: Human rhinovirus sp., H1-HeLa, HRV-Hanks.
[5] abbreviates: Human rhinovirus sp., HRV3, H1-HeLa, HRV-3.
Where [6] appears, read: Human rhinovirus sp., HRV9, H1-HeLa, HRV-9.
The mark [7] stands for this setting: Human rhinovirus sp., HRV11, H1-HeLa, HRV-11.
[8] abbreviates: Human rhinovirus sp., HRV13, H1-HeLa, HRV-13.
The mark [9] stands for this setting: Human rhinovirus sp., HRV16, H1-HeLa, HRV-16.
Setting [10] is: Human rhinovirus sp., HRV19, H1-HeLa, HRV-19.
Setting [11] is: Human rhinovirus sp., HRV25, H1-HeLa, HRV-25.
Setting [12] is: Human rhinovirus sp., HRV39, H1-HeLa, HRV-39.
[13] abbreviates: Human rhinovirus sp., HRV78, H1-HeLa, HRV-78.
Setting [14] is: Human rhinovirus sp., HRV10, H1-HeLa, HRV-10.

Like-named read-outs stand apart in the source and are kept apart here.

T1 sequence (P03303 1538-1719): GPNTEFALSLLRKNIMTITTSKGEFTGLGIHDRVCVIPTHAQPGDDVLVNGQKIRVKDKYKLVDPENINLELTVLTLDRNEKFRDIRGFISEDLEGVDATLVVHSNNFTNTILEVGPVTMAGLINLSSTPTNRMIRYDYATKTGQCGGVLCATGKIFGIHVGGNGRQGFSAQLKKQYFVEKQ

Turning to `C#CC[C@@H](C(=O)N[C@H](/C=C/C(=O)OC1CCCC1)C[C@@H]1CCNC1=O)n1cccc(NC(=O)c2cc(C)on2)c1=O` [Compound 40, trans-(2′S,3′″″S,4S)-4-[2′-(3″-{[1′″-(5″″-Methylisoxazol-3″″-yl)methanoyl]amino}-2′″-oxo-2′″H-pyridin-1′″-yl)pent-4″-ynoylamino]-5-(2′″″-oxopyrrolidin-3′″″-yl)pent-2-enoic Acid Cyclopentyl Ester], the kinact/KI in data set [1] was found to be 186000 M⁻¹ s⁻¹. Also, the EC50 in the data set on HRV-14 amounted to 27 nM; in data set [2] (H1-HeLa, HRV-2), 52 nM; in data set [2] (H1-HeLa, HRV-23), 55 nM; in data set [2] (setting [4]), 115 nM; in data set [2] (setting [5]), 56 nM; in data set [2] (setting [6]), 219 nM. Also, the EC50 in data set [2] (setting [7]) is 6 nM; in data set [2] (setting [8]), 148 nM; in data set [2] (setting [9]), 177 nM; in data set [2] (setting [10]), 60 nM; in data set [2] (setting [11]) it was 490 nM; in data set [2] (setting [12]) it was 163 nM. In addition, the EC50 in data set [2] (setting [13]) came to 123 nM; in data set [2] (Human rhinovirus sp., HRV87, H1-HeLa, HRV-87) it was 83 nM. The molecule also returned a CC50 at 2 days in data set [3] of more than 10000 nM. In addition, the CC50 in the data set on H1-HeLa cells (line of HRV-2), in the data set with H1-HeLa cells (line of HRV-3), in the data set with H1-HeLa cells (line of HRV-9), in the data set with H1-HeLa cells (line of HRV-11), with H1-HeLa cells (line of HRV-13) and in the data set with H1-HeLa cells (line of HRV-16) was more than 10000 nM throughout. Besides, the CC50 in the data set on H1-HeLa cells (line of HRV-19), in the data set on H1-HeLa cells (line of HRV-23), in the data set with H1-HeLa cells (line of HRV-25), with H1-HeLa cells (line of HRV-39), in the data set on H1-HeLa cells (line of HRV-78) and in the data set with H1-HeLa cells (line of HRV-87) was more than 10000 nM throughout. This molecule also returned a CC50 in the data set with H1-HeLa cells (line of HRV-Hanks) of more than 10000 nM.

With `C#CC[C@@H](C(=O)N[C@H](/C=C(\C)C(=O)OCC)C[C@@H]1CCNC1=O)n1cccc(NC(=O)c2cc(C)on2)c1=O` [Compound 44, trans-(2′S,3′″″S,4S)-2-Methyl-4-[2′-(3″-{[1′″-(5″″-methylisoxazol-3″″-yl)methanoyl]amino}-2′″-oxo-2′″H-pyridin-1′″-yl)pent-4″-ynoylamino]-5-(2′″″-oxopyrrolidin-3′″″-yl)pent-2-enoic Acid Ethyl Ester], the kinact/KI in data set [1] came to 12500 M⁻¹ s⁻¹. Moreover, the EC50 is 1460 nM with HRV-14; 1180 nM in data set [2] (H1-HeLa, HRV-2); 562 nM in data set [2] (setting [14]); 1090 nM in data set [2] (setting [9]); 1220 nM in data set [2] (setting [11]); more than 1000 nM in data set [2] (setting [12]). Also, the cytotoxic concentration (CC50) at 2 days in data set [3] is more than 10000 nM. The CC50 with H1-HeLa cells (line of HRV-2), in the data set on H1-HeLa cells (line of HRV-10), with H1-HeLa cells (line of HRV-16), in the data set with H1-HeLa cells (line of HRV-25) and with H1-HeLa cells (line of HRV-39) was more than 10000 nM throughout.

As for `Cc1cc(C(=O)Nc2cccn([C@@H](Cc3ccc(F)c(F)c3)C(=O)N[C@H](/C=C/C(=O)OC(C)(C)C)C[C@@H]3CCNC3=O)c2=O)no1` [Compound 46], in data set [1], the kinact/KI amounted to 350000 M⁻¹ s⁻¹. For the same molecule, the EC50 in the data set with HRV-14 came to 6 nM; in data set [2] (H1-HeLa, HRV-1A), 182 nM; in data set [2] (H1-HeLa, HRV-2), 145 nM; in data set [2] (H1-HeLa, HRV-23) it was 11 nM; in data set [2] (setting [4]), 5 nM; in data set [2] (setting [5]), 45 nM. In addition, the EC50 in data set [2] (setting [6]) was found to be 151 nM; in data set [2] (setting [14]) it was 135 nM; in data set [2] (setting [7]), 3 nM; in data set [2] (setting [8]) it was 78 nM; in data set [2] (setting [9]) it was 160 nM; in data set [2] (setting [10]), 20 nM. Also, the EC50 in data set [2] (setting [11]) was determined as 188 nM; in data set [2] (setting [12]), 227 nM; in data set [2] (setting [13]), 25 nM. The same molecule yielded a CC50 at 2 days in data set [3] of more than 10000 nM. The CC50 in the data set with H1-HeLa cells (line of HRV-1A), with H1-HeLa cells (line of HRV-2), with H1-HeLa cells (line of HRV-3), in the data set with H1-HeLa cells (line of HRV-9), in the data set on H1-HeLa cells (line of HRV-10) and with H1-HeLa cells (line of HRV-11) was more than 10000 nM in each case. In addition, the CC50 with H1-HeLa cells (line of HRV-13), in the data set with H1-HeLa cells (line of HRV-16), in the data set with H1-HeLa cells (line of HRV-19), in the data set on H1-HeLa cells (line of HRV-23), in the data set on H1-HeLa cells (line of HRV-25) and in the data set with H1-HeLa cells (line of HRV-39) was more than 10000 nM each time. Moreover, the CC50 in the data set on H1-HeLa cells (line of HRV-78) and with H1-HeLa cells (line of HRV-Hanks) was more than 10000 nM throughout.

For `Cc1cc(C(=O)Nc2cccn([C@@H](Cc3ccc(F)c(F)c3)C(=O)N[C@H](/C=C/C(=O)OC3CCCC3)C[C@@H]3CCNC3=O)c2=O)no1` [Compound 49, trans-(2′S,3″″″S,4S)-4-[3′-(3″,4″-Difluorophenyl)-2′-(3′″-{[1″″-(5′″″-methylisoxazol-3′″″-yl)methanoyl]amino}-2″″-oxo-2″″H-pyridin-1″″-yl)propanoylamino]-5-(2″″″-oxopyrrolidin-3″″″-yl)pent-2-enoic Acid Cyclopentyl Ester], the kinact/KI in data set [1] came out at 1.2e+06 M⁻¹ s⁻¹. The EC50 came out at 4 nM with HRV-14; 131 nM in data set [2] (H1-HeLa, HRV-1A); 83 nM in data set [2] (H1-HeLa, HRV-2); 41 nM in data set [2] (setting [5]); 95 nM in data set [2] (setting [6]); 76 nM in data set [2] (setting [14]). Further, the EC50 was 32 nM in data set [2] (setting [9]), 371 nM in data set [2] (setting [11]) and 145 nM in data set [2] (setting [12]). For the same molecule, the CC50 at 2 days in data set [3] is more than 10000 nM. Further, the CC50 with H1-HeLa cells (line of HRV-1A), in the data set with H1-HeLa cells (line of HRV-2), in the data set with H1-HeLa cells (line of HRV-3), with H1-HeLa cells (line of HRV-9), in the data set on H1-HeLa cells (line of HRV-10) and with H1-HeLa cells (line of HRV-16) was more than 10000 nM throughout. The CC50 in the data set with H1-HeLa cells (line of HRV-25) and in the data set with H1-HeLa cells (line of HRV-39) was more than 10000 nM in each case.

Take `C#CC[C@@H](C(=O)N[C@H](/C=C/C(=O)OC(C)C)C[C@@H]1CCNC1=O)n1cccc(NC(=O)c2cc(C)on2)c1=O` [Compound 50, trans-(2′S,3′″″S,4S)-4-[2′-(3″- {[1′″-(5″″-Methylisoxazol-3″″-yl)methanoyl]amino}-2′″-oxo-2′″H-pyridin-1′″-yl)pent-4″-ynoylamino]-5-(2′″″-oxopyrrolidin-3′″″-yl)pent-2-enoic Acid Isopropyl Ester]: the kinact/KI in data set [1] was 100000 M⁻¹ s⁻¹. Moreover, the EC50 is 68 nM in the data set on HRV-14; 200 nM in data set [2] (H1-HeLa, HRV-1A); 105 nM in data set [2] (H1-HeLa, HRV-2); 117 nM in data set [2] (setting [5]); 122 nM in data set [2] (setting [6]); 750 nM in data set [2] (setting [14]). Moreover, the EC50 in data set [2] (setting [9]) is 185 nM; in data set [2] (setting [11]), 371 nM; in data set [2] (setting [12]) it was more than 1000 nM. Further, the CC50 at 2 days in data set [3] is more than 10000 nM. The CC50 with H1-HeLa cells (line of HRV-1A), with H1-HeLa cells (line of HRV-2), in the data set on H1-HeLa cells (line of HRV-3), in the data set on H1-HeLa cells (line of HRV-9), with H1-HeLa cells (line of HRV-10) and with H1-HeLa cells (line of HRV-16) was more than 10000 nM throughout. Also, the CC50 in the data set on H1-HeLa cells (line of HRV-25) and in the data set on H1-HeLa cells (line of HRV-39) was more than 10000 nM each time.

Turning to `CC[C@@H](C(=O)N[C@H](/C=C/C(=O)OC(C)C)C[C@@H]1CCNC1=O)n1cccc(NC(=O)c2cc(C)on2)c1=O` [Compound 52, trans-(2′S,3′″″S,4S)-4-[2′-(3″-{[1′″-(5″″-Methylisoxazol-3″″-yl)methanoyl]amino}-2′″oxo-2′″H-pyridin-1′″-yl)butanoylamino]-5-(2′″″-oxopyrrolidin-3′″″-yl)pent-2-enoic Acid Isopropyl Ester], the kinact/KI in data set [1] was 36000 M⁻¹ s⁻¹. The EC50 turned out to be 181 nM in the data set with HRV-14; 473 nM in data set [2] (setting [6]); 176 nM in data set [2] (setting [14]); 280 nM in data set [2] (setting [9]); 109 nM in data set [2] (setting [11]); 337 nM in data set [2] (setting [12]). This molecule also showed a 50% cytotoxic concentration (CC50) at 2 days in data set [3] of more than 10000 nM. Moreover, the CC50 in the data set with H1-HeLa cells (line of HRV-9), in the data set with H1-HeLa cells (line of HRV-10), with H1-HeLa cells (line of HRV-16), in the data set on H1-HeLa cells (line of HRV-25) and with H1-HeLa cells (line of HRV-39) was more than 10000 nM throughout.

The values above are taken from patent US6514997B2, “Antipicornaviral compounds and compositions, their pharmaceutical uses, and materials for their synthesis” (Agouron Pharmaceuticals, Inc., priority 1999, dated 2003).
